# Where two headings read alike, the source gives them in different places.
# Key:
# [1] = target: DNA Polymerase IIIα (DnaE) from Staphylococcus aureus (Staphylococcus aureus, UniProt Q6GG04); assay: biochemical
# [2] = system: H. influenza Hi47 clinical strain, Ampicillin Resistant; assay: organism not typed; format: cell-based; conditions: for MIC Hi47: H. influenza Hi47 clinical strain, Ampicillin Resistant; for MIC: read-out: MIC Hi47
# S. aureus Sa1 ATCC 13709 = assay: microbe, parasite or virus in culture; format: cell-based; conditions: for MIC: Staphylococcus aureus
# [3] = system: E. coli Ec50 efflux pump KO; assay: microbe, parasite or virus in culture; format: cell-based; conditions: for MIC Ec50 efflux pump KO: E. coli Ec50 efflux pump KO; for MIC: Escherichia coli, read-out: MIC Ec50 efflux pump KO
# S. aureus Sa4 NCTC 6571 = assay: Antibacterial activity assay (MIC), S. aureus Sa4; format: cell-based; conditions: for MIC: Staphylococcus aureus
# E. coli Ec1 ATCC 25922 = assay: Antibacterial activity assay (MIC), E. coli Ec1; format: cell-based; conditions: for MIC: Escherichia coli
# [4] = system: E. coli Ec113 efflux pump KO; assay: microbe, parasite or virus in culture; format: cell-based; conditions: for MIC Ec113 efflux pump KO: E. coli Ec113 efflux pump KO; for MIC: Escherichia coli, read-out: MIC Ec113 efflux pump KO
# [5] = system: S. aureus Sa26 ATCC 25923; assay: Antibacterial activity assay (MIC), S. aureus Sa26; format: cell-based; conditions: for MIC: Staphylococcus aureus
# [6] = system: S. aureus Sa2 clinical strain NCIMB 41953, MRSA; assay: microbe, parasite or virus in culture; format: cell-based; conditions: for MIC Sa2: S. aureus Sa2 clinical strain, MRSA, Erythromycin Resistant, Fluoroquinolone resistant; for MIC: Staphylococcus aureus, read-out: MIC Sa2
# [7] = system: H. influenza Hi106 ATCC 51907; assay: organism not typed; format: cell-based; conditions: read-out: MIC Hi106
# [8] = system: H. influenza Hi10 clinical strain; assay: organism not typed; format: cell-based; conditions: read-out: MIC Hi10
# [9] = system: H. influenza Hi3 ATCC 31517; assay: organism not typed; format: cell-based; conditions: read-out: MIC Hi3
# [10] = S. aureus Sa1 ATCC 13709, sensitive strain, Mueller-Hinton Broth, 37° C.
# [11] = S. aureus Sa4 NCTC 6571, sensitive strain
# [12] = E. coli Ec1 ATCC 25922, sensitive strain
# [13] = S. aureus Sa26 ATCC 25923, sensitive strain, Mueller-Hinton Broth, 37° C.
# [14] = ATCC13709, S. aureus Sa1 ATCC 13709, sensitive strain, Mueller-Hinton Broth, 37° C., read-out: MIC Sa1
# [15] = NCTC6571, S. aureus Sa4 NCTC 6571, sensitive strain, read-out: MIC Sa4
# [16] = ATCC25922, E. coli Ec1 ATCC 25922, sensitive strain, read-out: MIC Ec1
# [17] = ATCC25923, read-out: MIC Sa26 + 10% SH, S. aureus Sa26 + 10% SH
# [18] = ATCC25923, read-out: MIC Sa26 + 50% SH, S. aureus Sa26 + 50% SH
# [19] = ATCC25923, S. aureus Sa26 ATCC 25923, sensitive strain, Mueller-Hinton Broth, 37° C., read-out: MIC Sa26
# [20] = ATCC25923, read-out: MIC Sa26 + 10% SH
# [21] = ATCC25923, read-out: MIC Sa26 + 50% SH
# Chain of DNA Polymerase IIIα (DnaE) from Staphylococcus aureus (Q6GG04 1-1022): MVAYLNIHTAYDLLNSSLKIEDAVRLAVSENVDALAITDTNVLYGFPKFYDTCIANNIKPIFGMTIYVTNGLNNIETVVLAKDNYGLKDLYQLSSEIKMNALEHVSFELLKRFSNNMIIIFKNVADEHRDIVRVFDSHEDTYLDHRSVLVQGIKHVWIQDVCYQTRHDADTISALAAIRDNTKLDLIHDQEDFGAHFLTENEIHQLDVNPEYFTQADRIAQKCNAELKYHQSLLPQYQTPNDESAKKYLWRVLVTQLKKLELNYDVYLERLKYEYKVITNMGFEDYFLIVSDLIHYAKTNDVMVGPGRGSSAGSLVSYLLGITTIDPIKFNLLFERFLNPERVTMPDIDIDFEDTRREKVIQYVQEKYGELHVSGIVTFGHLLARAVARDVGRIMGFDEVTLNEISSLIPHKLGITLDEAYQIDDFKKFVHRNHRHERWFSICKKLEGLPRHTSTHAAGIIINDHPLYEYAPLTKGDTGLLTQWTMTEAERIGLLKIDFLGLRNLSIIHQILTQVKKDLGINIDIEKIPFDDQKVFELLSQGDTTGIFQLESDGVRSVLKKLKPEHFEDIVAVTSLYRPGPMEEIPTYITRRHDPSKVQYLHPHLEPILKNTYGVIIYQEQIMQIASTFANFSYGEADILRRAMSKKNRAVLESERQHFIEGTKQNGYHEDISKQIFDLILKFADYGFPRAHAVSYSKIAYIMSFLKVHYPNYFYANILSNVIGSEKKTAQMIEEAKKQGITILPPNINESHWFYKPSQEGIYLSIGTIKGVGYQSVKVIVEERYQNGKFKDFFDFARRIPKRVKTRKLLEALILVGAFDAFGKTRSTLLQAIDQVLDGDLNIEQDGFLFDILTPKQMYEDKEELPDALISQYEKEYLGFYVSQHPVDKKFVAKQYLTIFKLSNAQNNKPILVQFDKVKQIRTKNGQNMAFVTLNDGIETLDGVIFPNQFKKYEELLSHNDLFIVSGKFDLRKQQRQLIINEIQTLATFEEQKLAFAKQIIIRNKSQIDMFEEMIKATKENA
Compound,MIC Hi47 [2] [µg/mL],MIC Sa1 (S. aureus Sa1 ATCC 13709; [10]) [µg/mL],MIC Ec50 efflux pump KO [3] [µg/mL],MIC Sa4 (S. aureus Sa4 NCTC 6571; [11]) [µg/mL],MIC Ec1 (E. coli Ec1 ATCC 25922; [12]) [µg/mL],MIC Ec113 efflux pump KO [4] [µg/mL],MIC Sa26 + 10% SH ([5]; S. aureus Sa26 + 10% SH) [µg/mL],MIC Sa26 + 50% SH ([5]; S. aureus Sa26 + 50% SH) [µg/mL],"MIC Sa26 [5, 13] [µg/mL]",MIC Sa2 [6] [µg/mL],MIC [2] [µg/mL],MIC [7] [µg/mL],MIC [8] [µg/mL],MIC (S. aureus Sa1 ATCC 13709; [14]) [µg/mL],MIC [3] [µg/mL],MIC (S. aureus Sa4 NCTC 6571; [15]) [µg/mL],MIC (E. coli Ec1 ATCC 25922; [16]) [µg/mL],MIC [4] [µg/mL],MIC [6] [µg/mL],MIC [9] [µg/mL],further results
8-O-4-Bromo-5-Chloro-1H-pyrrole-2′-carbonylbranimycin [Compound 35],>64,>64,>64,64,>64,64,>64,>64,>64,64,,,,,,,,,,,"IC50 semiquantitative scoring, S. aureus [1]: ** (key: ***: 0.001-1 μg/mL; **: 1.0-10 μg/mL; *: >10 μg/mL)"
"COCC(=NOC(C)=O)[C@H]1OC(=O)[C@H](COC)[C@H]2C=C[C@H]3[C@H]4O[C@]2(/C(C)=C/[C@H]1C)[C@@H]3[C@H](O)[C@@H](COC)[C@H]4OC(=O)c1cc(Cl)c[nH]1 [Compound 42, 18-Acetylimino-18-deoxy-8-O-4-Chloro-1H-pyrrole-2′-carbonylbranimycin]",,,,,,,,,,,> 64,> 64,> 64,2,64,2,> 64,4,2,> 64,"MIC [5, 17]: 16 µg/mL; MIC [5, 18]: 32 µg/mL; MIC [5, 19]: 4 µg/mL"
"COCC(=NO)[C@H]1OC(=O)[C@H](COC)[C@H]2C=C[C@H]3[C@H]4O[C@]2(/C(C)=C/[C@H]1C)[C@@H]3[C@H](O)[C@@H](COC)[C@H]4OC(=O)c1cc(Cl)c[nH]1 [Compound 41, 18-Deoxy-18-oximino-8-O-4-Chloro-1H-pyrrole-2′-carbonylbranimycin]",,,,,,,,,,,> 64,> 64,> 64,4,64,2,> 64,2,,> 64,"IC50 [1]: 1.6 to 1600 nM; MIC [5, 17]: 4 µg/mL; MIC [5, 18]: 32 µg/mL; MIC [5, 19]: 2 µg/mL"
"COC[C@@H](O)[C@H]1OC(=O)[C@H](COC)[C@H]2C=C[C@H]3[C@H]4O[C@]2(/C(C)=C/[C@H]1C)[C@@H]3[C@H](O)[C@@H](C)[C@H]4OC(=O)c1cc(Cl)c[nH]1 [Compound 30, 8-O-4-Chloro-1H-pyrrole-2′-carbonylbaleomycin]",,,,,,,,,,,64,> 64,64,,16,,,0.5,8,> 64,"MIC (S. aureus Sa1 ATCC 13709; ATCC13709, read-out: MIC Sa1): 16 µg/mL; MIC (S. aureus Sa4 NCTC 6571; NCTC6571, read-out: MIC Sa4): 16 µg/mL; MIC (E. coli Ec1 ATCC 25922; ATCC25922, read-out: MIC Ec1): > 64 µg/mL; MIC ([5]; ATCC25923, read-out: MIC Sa26): 16 µg/mL; MIC [5, 20]: 32 µg/mL; MIC [5, 21]: 64 µg/mL"
"COC[C@@H]1[C@@H](O)[C@@H]2[C@H]3C=C[C@@H]4[C@@H](COC)C(=O)O[C@H]([C@H](O)COC)[C@H](C)/C=C(\C)[C@@]24O[C@H]3[C@@H]1OC(=O)c1cc(Cl)c(Cl)[nH]1 [Compound 31, 8-O-4,5-Dichloro-1H-pyrrole-2′-carbonylbranimycin]",,,,,,,,,,,32,32,16,,> 64,,,32,64,> 64,"MIC (S. aureus Sa1 ATCC 13709; ATCC13709, read-out: MIC Sa1): > 64 µg/mL; MIC (S. aureus Sa4 NCTC 6571; NCTC6571, read-out: MIC Sa4): 64 µg/mL; MIC (E. coli Ec1 ATCC 25922; ATCC25922, read-out: MIC Ec1): > 64 µg/mL; MIC ([5]; ATCC25923, read-out: MIC Sa26): > 64 µg/mL; MIC [5, 20]: > 64 µg/mL; MIC [5, 21]: > 64 µg/mL"
8-O-5-Bromo-4-Chloro-1H-pyrrole-2′-carbonylbranimycin [Compound 33],>64,>64,>64,64,>64,6,>64,>64,>64,64,,,,,,,,,,,

# Source: patent US20160297830A1, “NOVEL COMPOUNDS USEFUL FOR THE TREATMENT OF BACTERIAL INFECTIOUS DISEASES” (GALAPAGOS NV, priority 2013, published 2016)
